Laboratory results reported in patent publication US20080038288A1, “Prevention of damage in hippocampus of fetus/newborn infant due to maternal gestational hypertension” (priority 2006, published 2008).
Marks after values point to notes of the source that are not given here.

Legend:
[1] = test system: E21 day rat embryo hippocampal cells; experiment: Flow cytometry of hippocampal cell cycle in E21 embryos of L-NAME gestational hypertension rats; format: in vivo; settings: dam given L-NAME 60 mg/kg/day i.p. plus gastric feeding E14-20, mean ± sx
Excerpt: (§1) Animal groups and administration of medication. Gestational hypertension (GH) was produced in rats using the L-NAME (a type of NOS inhibitor) method of Yallampalli et al. [Yallampalli et al., Am J Obstet Gynecol., 1993, 169:1316-1320]. Forty mature (11-12 weeks old) SD female rats weighing 200-230 g; 10 mature (13-15 weeks old) SD male rats weighing 250-300 g. At a ratio of […], the rats were paired in cages, on the second day the female rats' vaginal secretions were observed (smear technique) and those containing sperm were considered to be at day 0 of pregnancy (E0). […] L-NAME was given by two injections at a total dose of 60 mg/kg/day. Two hours after each injection, the pregnant rats received gastric feeding of distilled water, L-arginine or GLSs. The GLSs were provided by Kindway International Ltd./Holistol International Ltd., license number GANSPSP04040104. The L-arginine was purchased from the Amresco Company.
(§2) Preparation of histological materials. Some of the pregnant rats were anesthetized at E21 day with an i.p. injection of 1% pentobarbital (35 mg/kg). The embryos were removed from the uterus. […]
Hippocampal tissue separated from E21 day rat embryos was placed in a culture dish and sheared into pieces, 0.01 mol/L phosphate buffered saline (PBS) was added and repeatedly triturated, filtered through a 100-mesh screen, and the single-cell suspension obtained was fixed in 75% alcohol at 4° C. to await testing. Before testing, the extracted cell suspension was centrifuged to remove the supernatant, 100 μL RNase (0.1 mg/L) added, placed at 37° C. for 30 min, after rinsing with normal saline, propidium iodine (PI) stain (0.05 mg/L, 0.03% Triton X-100 0.5 mL) was added, placed at 4° C. protected from light to react for 30 min, then measured. In flow cytometry, a 488 nm laser used Cell Fit software to collect 10,000 cells/specimen cell cycle data was analyzed and one-way ANOVA testing performed for statistical processing.

[2] = test system: hippocampus dentate gyrus proliferating cells; experiment: BrdU labeling, positive cell counts at hippocampus dentate gyrus of P30 rats born to L-NAME rats; format: in vivo, rat; settings: dam given L-NAME plus gastric feeding E14-20, mean ± sd
Excerpt: as §1
Preparation of histological materials. Some of the pregnant rats were anesthetized at E21 day with an i.p. injection of 1% pentobarbital (35 mg/kg). The embryos were removed from the uterus. Some were placed in a freezer dish and the hippocampal tissue was removed from the brains of the embryos, placed in an Eppendorf tube and stored at −80° C. to await testing. The rest of the embryonic brains were fixed in a 4% paraformaldehyde solution. […]

[3] = test system: hippocampus microvessels; experiment: Hippocampal microvessel density, vWF immunohistochemical staining, Weidner counting; format: in vivo, rat; settings: dam given L-NAME plus gastric feeding E14-20, mean ± sd
Excerpt: as §1, §2
Hippocampal microvessel density: The Weidner counting method was used to determine the microvessel standard [Weidner et al., Am J Pathol. […] Under a light microscope (200×), microvessel numbers were counted in five visual fields. […]

[4] = test system: hippocampus CA1, CA3 and DG neurons; experiment: Morphometric analysis: hippocampal cell layer thickness and neuron body count, neutral red staining; format: in vivo, rat; settings: P30 rats, mean ± sd
Excerpt: as §1
Preparation of histological materials. Some of the pregnant rats were anesthetized at E21 day with an i.p. injection of 1% pentobarbital (35 mg/kg). The embryos were removed from the uterus. Some were placed in a freezer dish and the hippocampal tissue was removed from the brains of the embryos, placed in an Eppendorf tube and stored at −80° C. to await testing. The rest of the embryonic brains were fixed in a 4% paraformaldehyde solution. Another group of pregnant rats went into normal labor, and the young rats were fed and raised until 30 days of […] (P30). Some of the young rats received the preceding pentobarbital anesthesia and their hippocampal tissue was placed in a freezer dish and stored to await testing. The rest of the rats in the P30 group received pentobarbital anesthesia as above, their chests were opened and an aortic cannula inserted through the left ventricle. One group of young rats was first quickly perfused with normal saline and then 4% paraformaldehyde 0.1 mol/L phosphate buffer (PB) (pH 7.4). Then the fixed cerebral corona was continuously frozen and sectioned at a thickness of 15 μm. Sectioning started at the alveus of the hippocampus, one section every 300 μm, and six sections were taken from each brain, for a collection of six sets of sections.
Morphometric analysis. Various cell layer thicknesses from various areas of the hippocampus were measured and a neuron body count obtained. Under a low-magnification microscope, two visual fields were randomly selected from the CA1, CA3 and DG regions. Under a high-magnification microscope (200×), the cell layer thickness was measured and the number of nucleated neuron bodies counted. The cell layer thicknesses or body numbers are the averages of two visual fields.

Compound: N=C(N)NCCC[C@H](N)C(=O)O [L-arg, L-arginine]
- Percentage of hippocampal cells in G1/G0 phase [1]: 82.74 ± 2.75^h %
- Percentage of hippocampal cells in G2/M phase [1]: 1.44 ± 0.44^i %
- Percentage of hippocampal cells in S phase [1]: 15.34 ± 2.92^g %
- BrdU positive cell counts at hippocampus dentate gyrus [2]: 38.00 ± 1.04^c
- Microvessel density at the hippocampus, E21 ([3]; E21 embryos): 39.80 ± 4.79^e
- Microvessel density at the hippocampus, P30 ([3]; P30 rats): 75.25 ± 3.86^f
- Hippocampal cell layer thickness CA1 ([4]; CA1 area): 115.23 ± 9.49^m μm
- Neuron body counts CA1 ([4]; CA1 area): 31.80 ± 1.15^n num
- Hippocampal cell layer thickness CA3 ([4]; CA3 area): 90.64 ± 6.18^o μm
- Neuron body counts CA3 ([4]; CA3 area): 23.00 ± 0.83^p num
- Hippocampal cell layer thickness DG ([4]; DG area): 64.87 ± 4.42^q μm
